Experimental data: patent US20040097534A1, “Composition for the protection and regeneration of nerve cells containing berberine derivatives” (EUGENBIO INC., priority 2001, published 2004)
Values joined by “and” are separate entries in the source; they are usually repeats but may differ in a detail not shown here. Identical values can stand only once. “Also recorded” adds a separate entry of the source.

Tests used:
PC12 cells [1] = assay: MTT assay, PC12 survival under serum deprivation-induced stress; format: cell-based, rat; conditions: RPMI + NGF 100 ng/ml
Experimental: (§1) Cell injuries under condition of serum deprivation-induced stress and oxidative stress were measured by MTT assay. For MTT assay, Cells were seeded into N2 medium in an amount of 7.5×10^3 cells, and then a neurotoxin or a nerve growth factor was added thereto to differentiate the cells and then 0.1 volume of 4 mg/ml MTT was further added. The mixture was stored at 37° C. for 3-4 hours. After 100 μl of solubilization buffer was added to the mixture and then stored for 24 hours, O.D. values were measured by ELISA assay.
NGF, increasing cell survival and inducing cell differentiation, was used as a positive control. After the cells were treated with berberine (0.25˜3 μg/ml), the cells were cultured for 2 days to induce nerve regeneration (see, Table 3 and FIG. 5a).

PC12 cells [2] = assay: MTT assay, PC12 survival under dexamethasone (glucocorticoid) stress; format: cell-based, rat
Experimental: as §1
Glucocorticoids are hormones secreted from the adrenal glands, and involve in a variety of metabolic processes including glycometabolism. In particular, stress causes release of glucocorticoids to reduce cell divisions of neuronal stem cells in the brain and induce apoptosis of nerve cells. Therefore, PC12 cells were treated with dexamethasone, a glucocorticoid derivative, to examine the effect of berberine against apoptosis of nerve cells. 3 hours after treatment with berberine, dexamethasone (1) was added to a culture solution and incubated for 2 days to induce neuroregeneration (see, Table 5 and FIG. 5b).

[3] = system: nerve cells highly sensitive to NMDA receptors; conditions: MK-801 to young rat (7-8-days old); cited from earlier work
HiB5 cells [4] = system: HiB5 cells
Experimental: Since HiB5 cells derived from white rat embryonic hippocampus were prepared by retroviral infection of temperature sensitive SV40 large T antigen, they divided at […], but the cell division stopped at 39° C. (body temperature of rat). […] Cell culture medium was prepared by adding a mixture of 10% FBS (fetal bovine serum), penicillin/streptomycin, glutamine and sodium pyruvate (0.11 g/L) to DMEM. On differentiating at 39° C., another cell culture medium was prepared by adding pyruvate to a serum-free medium (N2, containing DMEM/F12, insulin, transferrin, Putreseine and BSA; Botten Stein & Sato., 1979). PC12 cells and SH-SY5Y cells were cultured in DMEM supplemented with 10% FBS. In order to differentiate the cells, NGF or retinoic acid was added to a serum-free medium.
as §1
HiB5 cell line used in this experiment was prepared by infecting primary cultured cells of temperature sensitive SV40 large T antigen in rat embryonic hippocampus (embryonic day 16) using retroviral vectors. The HiB5 cell line was divided at the permissive temperature (32° C.), but the cell division stopped at the non-permissive temperature (body temperature of rat: 39° C.). A small number of GABAegic neurons differentiated in the rat embryonic hippocampus (embryonic day 16), and glutamatergic pyramidal cell precursors still divided, some of which penetrated into dentate gyrus regions through dentate migration pathways in embryonic day 18 to differentiate into glutamatergic granule cells (Altman J., Bayer. S. A. (1990a) Prolonged sojourn of developing pyramidal cells in the intermediate zone of the hippocampus and their settling in the stratum pyramidale. J Comp Neurol. 301, 343-64.; Altman J., Das G. D. (1965) Post-natal origin of microneurones in the rat brain, Nature. 28, 953-956.). When cells stop their cell-division and start to differentiate in vivo, apoptosis occurs.
In order to evaluate the protective effect of berberine against apoptosis and the effect of increasing cell survival, HiB5 cells were cultured under conditions for initiation of differentiation. At this time, the culture was treated with berberine at various concentrations (50 ng/ml˜6 μg/ml). The protective effect of berberine against apoptosis was measured by MTT assay. A positive control group was treated with bFGF to block apoptosis, increase cell survival and induce the differentiation into nerve cells.
Since HiB5 neuronal stem cells undergo cell death during the differentiation, the cells were considered as a negative control group. The percentage of O.D. values is determined for the groups treated with bFGF and berberine, respectively.

HiB5 cells [5] = assay: Induction of differentiation of HiB5 cells into nerve cells (neurite count, confocal); format: cell-based, white rat; conditions: HiB5, bFGF positive control
Experimental: (§2) Thereafter, the culture was treated with berberine and further cultured for 2 days. The cultured cells were immunostained with nerve cell-specific labeled molecule, and then the number of cells having neurites longer than cell bodies was counted under a confocal microscope. A positive control was treated with bFGF under the same condition as described above to induce the differentiation into nerve cells. In addition, the neuroregenerative effect was examined after berberine together with bFGF was treated. The differentiation degree was measured by double-staining neurites with nerve cell-specific labeled molecule (anti-neurofilament antibody) and FITC-labeled secondary antibody (green), followed by staining cell nuclei with propidium iodide (red).

[6] = system: nerve cells in CA1, dentate gyrus and entorhinal cortex; assay: Animal model for dementia (ibotenic acid into entorhinal cortex), calbindin-positive neuron count; format: in vivo, rat
Experimental: After white rat brain was fixed with a stereotaxic frame, 1.5 μl (1 mg/ml) of ibotenic acid and PBS, or 1.5 μl (1 mg/ml) of berberine was injected into the entorhinal cortex region using a microinjector to prepare a model for dementia. […]
Brain was fixed with 4% paraformaldehyde and cryosected to a thickness of 40 μm, and then the cryosected brain was permeablized with 0.5% Triton X-100 for 20 minutes and blocked using 15% blocking serum for 2 hours. After reacting with anti-calbindin antibody at a temperature 4° C. for 16 hours and then further reacting with FITC-labeled secondary antibody or rhodamin (TRITC)-labeled secondary antibody for 1 hour, the cells were fixed on a slide before examining under a confocal microscope.
As an animal model for dementia, ibotenic acid was microinjected into the entorhinal cortex of adult rat brain using a stereotaxic frame.
First, an adult rat was anesthetized, and its head was fixed with a stereotaxic frame. Subsequently, 1.5 μl (1 mg/ml) of ibotenic acid was injected into the entorhinal cortex region to prepare a model for dementia, and then berberine was injected into the same site. 2 weeks after operation, brain tissue sections were counter-stained with hematocylin to examine apoptosis and protective effect. After fluorescence-staining the cells, regions used for cell count were represented as squares (FIG. 14). In addition, the cells were fluorescence-stained with calbindin antibody, a nerve-specific marker, to examine nerve cell survival (see, Tables 8 to 10, FIGS. 11 and 12).

SH-SY5Y cells [7] = assay: MTT assay, SH-SY5Y survival under oxidative stress (H2O2); format: cell-based, human
Experimental: SH-SY5Y cells were treated with H2O2 for 30 minutes to induce cell injuries. 3 hours before the cells were treated with H2O2, berberine (0.25˜3.5 μg) was added to cell culture to examine its cell protection effect (see, Table 4 and FIG. 4b).

SH-SY5Y cells [8] = assay: MTT assay, SH-SY5Y survival under serum deprivation-induced stress; format: cell-based, human; conditions: N2 + retinoic acid 5 μM
Experimental: as §1
In order to prepare a stroke-like cell model using SH-SY5Y, the cells were cultured under serum deprivation. […] Retinoic acid, which induces the differentiation of SH-SY5Y as a cell differentiation factor, was used as a positive control. 3 hours before depriving serum, the cells were treated with berberine (0.25˜3 μg). The cells were cultured in chemically defined media (N2) for 2 days to induce nerve regeneration (see, Table 2 and FIG. 4a).

SH-SY5Y cells [9] = assay: Neurite regeneration in SH-SY5Y cells; format: cell-based, human; conditions: retinoic acid
Experimental: as §2, with “(red). In order to examine the effect of berberine on neurite regeneration, SH-SY5Y cells were used as differentiated nerve cell lines. Retinoic acid inducing neurite growth was used as a positive control.” for “(red).”

[10] = N2 + dexamethasone + NGF 100 ng/ml
[11] = Ibotenic Acid alone (reference)

Question: Which O.D. (PC12 cells [1]; 2 days) does the source give for “NGF: nerve growth factor, positive control in PC12 cells” here?
Answer: 0.349

Question: What about the “Average (O.D. relative to RPMI)” value (PC12 cells [1]; RPMI = 100%) of the same molecule?
Answer: 208%

Question: And the “Average (O.D. relative to dexamethasone alone)” value (PC12 cells [2]; [10])?
Answer: 147%

Question: What about the O.D. (PC12 cells [2]; [10]) of the same molecule?
Answer: 0.283

Question: And the “cell survival rate increase” value (PC12 cells [2]; dexamethasone stress, 2 days)?
Answer: about 1.5 times

Question: With MK-801 as the molecule, how does the “number of dead nerve cells, of total nerve cells” value [3] read?
Answer: 12-26%

Question: For “bFGF: basic fibroblast growth factor, positive control increasing HiB5 survival and differentiation”, which “cell survival rate / protective effect against apoptosis, increase over control” value (HiB5 cells [4]; HiB5 under differentiation conditions, MTT) is on record?
Answer: 1.5 times and 1.6 times

Question: And the O.D. % (HiB5 cells [4]; bFGF 20 ng, control = 100)?
Answer: 150%

Question: And the “differentiation into nerve cells (morphology)” value (HiB5 cells [5])?
Answer: induced the differentiation into nerve cells; also recorded: cell bodies got smaller and neurites got longer

Question: Which results are given for N[C@H](C(=O)O)c1cc(=O)[nH]o1 [Ibotenic Acid, ibotenic acid, reference compound]?
Answer: cell number relative to Ibotenic Acid average = 100, CA (individual animals #1-#3) ([6]; Ibotenic Acid alone): 116 and 112 and 73; cell number relative to Ibotenic Acid average = 100, DG (individual animals #1-#3) ([6]; Ibotenic Acid alone): 123 and 105 and 72; cell number relative to Ibotenic Acid average = 100, ENT (individual animals #1-#3) ([6]; Ibotenic Acid alone): 100 and 105 and 94; cell number, CA (individual animals #1-#3) ([6]; Ibotenic Acid alone): 57 and 55 and 36; cell number, CA, AVR ([6]; Ibotenic Acid alone): 49.3; cell number, DG (individual animals #1-#3) ([6]; Ibotenic Acid alone): 227 and 193 and 133; cell number, DG, AVR ([6]; Ibotenic Acid alone): 184.3; cell number, ENT (individual animals #1-#3) ([6]; Ibotenic Acid alone): 73 and 77 and 68; cell number, ENT, AVR ([6]; Ibotenic Acid alone): 72.7; cell number (%) relative to Ibotenic Acid, CA, average [6, 11]: 100%; cell number (%) relative to Ibotenic Acid, DG, average [6, 11]: 100%; cell number (%) relative to Ibotenic Acid, ENT, average [6, 11]: 100%; reduction of calbindin-positive neurons in the hippocampus and entorhinal cortex ([6]; ibotenic acid alone, 2 weeks after microinjection): 30˜40%; calbindin-positive neurons, recovery ([6]; ibotenic acid alone, 4 weeks after microinjection): recovered somewhat; also recorded: some of them were recovered

Question: With OO [H2O2, reference compound] as the molecule, how does the O.D. (SH-SY5Y cells [7]; N2, H2O2 150 μM alone) read?
Answer: 0.056

Question: What about the “Average (O.D. relative to H2O2 alone)” value (SH-SY5Y cells [7]; N2, H2O2 150 μM alone (reference = 100%; N2 without H2O2 = 429%)) of the same molecule?
Answer: 100%

Question: With CC1=C(/C=C/C(C)=C/C=C/C(C)=C/C(=O)O)C(C)(C)CCC1 [Retinoic acid, reference compound] as the molecule, how does the O.D. (SH-SY5Y cells [8]; 2 days) read?
Answer: 0.871.

Question: What about the “Average (O.D. relative to N2)” value (SH-SY5Y cells [8]; N2 = 100%) of the same molecule?
Answer: 130%

Question: What about the “Average (O.D. relative to H2O2 alone)” value (SH-SY5Y cells [7]; N2, H2O2 + retinoic acid 5 μM) of the same molecule?
Answer: 321%

Question: What about the O.D. (SH-SY5Y cells [7]; N2, H2O2 + retinoic acid 5 μM) of the same molecule?
Answer: 0.179

Question: And the “Number of differentiated cells” value (SH-SY5Y cells [9]; N2 = 22.30)?
Answer: 18.91

Question: What about the “total average cell numbers” value (SH-SY5Y cells [9]; N2 = 42.33) of the same molecule?
Answer: 24.75

Question: What about the “Average (%) of differentiated cells” value (SH-SY5Y cells [9]; N2 = 44.47) of the same molecule?
Answer: 81.59%

Question: With C[C@@H]1C[C@H]2[C@@H]3CCC4=CC(=O)C=C[C@]4(C)[C@@]3(F)[C@@H](O)C[C@]2(C)[C@@]1(O)C(=O)CO [Dexamethasone, dexamethasone, reference compound] as the molecule, how does the O.D. (PC12 cells [2]; N2 + dexamethasone 1 μM alone) read?
Answer: 0.193

Question: What about the “Average (O.D. relative to dexamethasone alone)” value (PC12 cells [2]; N2 + dexamethasone 1 μM alone (reference = 100%; N2 = 118%)) of the same molecule?
Answer: 100%
